The values that follow come from PubChem BioAssay AID1159557 (GlaxoSmithKline (GSK), 2015).

SMILES strings stand for the structures. The source made the active and inactive calls. No rule for the calls is given here.

This assay relates to Trypanosoma brucei growth inhibition. Briefly: trypanosome proliferation inhibitors (AID 1159557).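 Also: parasites exposed to compound for 48 h before the resazurin readout.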
With `Cc1nn(C2CCS(=O)(=O)C2)c(C)c1CN(C)C(=O)C=Cc1sc2ccccc2c1Cl` (stereo not drawn), the IC50 was 10 µM.
Turning to `COc1cccc(-c2c(C)nn(-c3nc(N)nc(-c4ccccn4)n3)c2N)c1`, the IC50 is > 40 µM (inactive).
The same measure for `COc1ccc(CN(C)Cc2ccncc2)cc1-c1ccc(S(=O)(=O)NC2CCC2)s1`: > 40 µM (inactive); for `Cc1ccc(NC(C)C(=O)Nc2ccc(C#N)cc2)cc1S(=O)(=O)N1CCCCC1` (stereo not drawn): 7.9 µM.
The same measure for `CCOc1ccc(Nc2ccc(S(=O)(=O)N3CCN(C)CC3)cc2[N+](=O)[O-])cc1OCC`: 6.3 µM; for `FC(F)(F)c1cc(C2CCCN(Cc3c[nH]c4ccccc34)C2)nc2ncnn12` (stereo not drawn): > 40 µM (inactive).
The figure for `CN(C)c1ncc(-c2cncn2CCOc2ccc(Cl)cc2)cn1` is > 40 µM (inactive).
On to `CNC(=O)Oc1ccc(C(=O)NCc2ccccc2)cc1OC(=O)NC`, for which the IC50 is 0.13 µM.
For `CS(=O)(=O)NC1CCC(Nc2ncc(Br)c(Nc3ccccc3C(N)=O)n2)CC1` (stereo not drawn), the concentration for half-maximal inhibition (IC50) is 0.16 µM.
The same measure for `O=C(NCC1CCCCC1)c1cnns1`: 1 µM; for `O=C(NC1CCN(C2Cc3ccc(NS(=O)(=O)c4cc(F)cc(F)c4)cc3C2)CC1)C1CC1` (stereo not drawn): 1 µM; for `COc1ccc(C(C)N(C)c2ncc3c(N)nc(N)nc3n2)cc1F` (stereo not drawn): 13 µM.
As to `COCCn1c(-c2ccccc2)cnc1NCc1ccccc1OC`, the IC50 was 25 µM.
Consider `CC1CCCCN1C(=O)NCCc1coc(-c2ccc(F)cc2)n1` (stereo not drawn), for which the IC50 is 0.13 µM.
The same measure for `O=C(CN1CCC2(O)CCCCC2C1c1ccc2c(c1)OCO2)Nc1ccc(Cl)cc1Cl` (stereo not drawn): 13 µM; for `CS(=O)(=O)c1ccccc1C(=O)N(Cc1ccccc1)c1ccccc1`: 0.4 µM; for `CC(C(=O)Nc1ccccc1F)N(C)CC(=O)Nc1cccc2ccccc12` (stereo not drawn): 25 µM.
The same measure for `Cc1cc(C)c(C#N)c(SCC(=O)c2ccc3c(c2)OCO3)n1`: 20 µM; for `N#Cc1cccc(Cc2cc(Nc3cc(C4CC4)[nH]n3)nc(N3CC[C@H]3C(N)=O)n2)c1`: 0.04 µM; for `COc1cnc2ccc(=O)n(CCN3CCC(NC/C=C/c4cc(F)ccc4F)CC3)c2c1`: 0.4 µM.
The figure for `N#Cc1ccc(C(=O)Nc2cccc(-c3cccc(CN4CCC(O)CC4)c3)c2)cc1` is 0.79 µM.
Take `CN(Cc1nc2ccc(C(=O)NCC3CCCCC3)cc2[nH]1)C1CCCc2cccnc21` (stereo not drawn): the IC50 was 0.79 µM.
Regarding `Cn1c(CC(=O)NNC(=O)c2ccc3ccccc3n2)nc2ccccc21`, the IC50 is 7.9 µM.
Consider `CS(=O)(=O)NC1CCC(Oc2cc3cnccc3cc2-c2ccsc2)CC1` (stereo not drawn), for which the IC50 is 16 µM.
The figure for `CC(C)n1c(-c2nonc2N)nc2cccc(OCCN3CCCC3)c21` is 0.79 µM.
The figure for `Cc1ccc(-c2csc(NC(=O)C=Cc3ccc(S(=O)(=O)N4CCOCC4)cc3)n2)o1` is 3.2 µM; for `CC(=O)Nc1ccc(-c2csc(NC(=O)c3ccc([N+](=O)[O-])s3)n2)cc1` it is 0.025 µM; for `COc1ccc2ncc(Cl)c(CCN3CC[C@H](NCc4cc5c(cn4)OCS5)[C@@H](O)C3)c2n1` it is 0.32 µM.
The same measure for `NC(=O)c1ccc(-c2cccc(OCCN3CCN(C4CCCCC4)CC3)c2)cc1`: 16 µM; for `Cc1nc2c(-c3cccs3)c(C)nn2c(NCCO)c1C`: 0.13 µM; for `COc1ccc(S(=O)(=O)NC(C)C)cc1Nc1ncc(-c2cccc(F)c2)cn1`: 20 µM.
`O=C(NCc1nnc2n1CCCCC2)c1csc(-c2ccccc2)n1`: the IC50 is 0.32 µM.
The figure for `Cc1ccc(NC(=O)c2ccc([N+](=O)[O-])s2)cc1S(=O)(=O)N1CCOCC1` is 0.25 µM.
The figure for `COc1ccc(-c2csc(NC(=O)c3ccc([N+](=O)[O-])s3)n2)cc1` is 0.079 µM; for `COc1ccc(-c2cc(C)no2)cc1S(=O)(=O)Nc1ccc(F)c(Cl)c1` it is 16 µM.
The figure for `c1ccc(CNc2cccc3ccncc23)cc1` is 25 µM.
With `O=C(CN(Cc1ccccn1)Cc1ccccn1)NC1Cc2ccccc2C1`, the IC50 is 20 µM.
The same measure for `Nc1nc(-c2ccccn2)nc(N)c1Cc1c(F)cccc1Cl`: 2.5 µM; for `O=C(NCc1ccncc1)c1ccccc1N1CCCN(C(=O)Cc2ccc(F)c(F)c2)CC1`: 6.3 µM.
The figure for `Cc1occc1C(=O)Nc1ccccc1C(=O)Nc1nccs1` is 0.4 µM; for `N#Cc1cc(N2CCCC2=O)ccc1Sc1ccccc1CO` it is 40 µM; for `O=c1oc2ccccc2n1C1CCN(Cc2ccccc2-c2cccnc2)CC1` it is 40 µM.
Take `O=C(Nc1nc(-c2ccccn2)cs1)N1C[C@H]2C[C@@]2(c2ccccc2)C1`: the IC50 was 0.5 µM.
The figure for `Cc1cc(NC(=O)C2CC2)ccc1OC1CCN(Cc2ccco2)CC1` is 0.13 µM; for `Cc1cccc(Nc2nc(-c3ccccn3)cs2)n1` it is 1 µM; for `CNc1cc(C)nc(C2CN(C(=O)c3n[nH]c4ccccc34)CCO2)c1` (stereo not drawn) it is 20 µM.
The figure for `Clc1cc(Br)ccc1OCCCCn1ccnc1` is 10 µM; for `CN(C)S(=O)(=O)c1cccc(C(=O)Nc2nc(-c3ccccn3)cs2)c1` it is 0.5 µM; for `CN1CCCN(C(=O)c2ccc(N3CCCC3)cc2Cl)CC1` it is > 40 µM (inactive).
The figure for `CCCNC(=O)Nc1cccc(-c2nc3ncccc3o2)c1` is 0.5 µM; for `Nc1nc(-c2ccccc2)cc(-c2nc3ncccc3[nH]2)n1` it is 10 µM.
With `CC(C)(C)c1cc(NC2CC2)nc(-c2ccccn2)n1`, the IC50 is 7.9 µM.
The figure for `CN(C)CCOc1ccc(N2CCN(S(=O)(=O)c3ccc(Cl)cc3)CC2)cc1` is 20 µM; for `COc1ccc(-c2cnc(NC(=O)c3ccc(F)cc3)n2C)cc1` it is 1.3 µM; for `O=C(CN(c1cccc(C(F)(F)F)c1)S(=O)(=O)c1ccc(Cl)cc1)NCc1ccc(F)c(F)c1` it is 10 µM.
The figure for `O=C(Nc1cccc(Cl)c1)N1CCCCC1c1cccnc1` (stereo not drawn) is > 40 µM (inactive); for `Cc1cccnc1CN1CCN(CCCOc2ccc(-c3ccc(C(N)=O)cc3)cc2)CC1` it is 10 µM.
The figure for `COc1cccc(C(=O)[C@H]2C[C@@H]2CN(Cc2ccccn2)Cc2ccccn2)c1` is 16 µM; for `CC1CCCN(S(=O)(=O)c2ccc(C(=O)Nc3nc(-c4ccccn4)cs3)cc2)C1` (stereo not drawn) it is 0.2 µM; for `O=S(=O)(NCC(c1cccnc1)N1CCN(c2ccccc2F)CC1)c1ccc(F)cc1` (stereo not drawn) it is 25 µM.
As for `CN(C)Cc1ccc(-c2ccc(S(=O)(=O)NCC3CCCO3)c(F)c2)cc1` (stereo not drawn), the IC50 is 25 µM.
The same measure for `CCc1cccc(CC)c1-n1c(SCC(=O)NC(=O)NCc2ccco2)nnc1-c1cccnc1`: 0.4 µM.
Consider `COc1ccc(NS(=O)(=O)c2cccc(NC(=O)c3cc(F)cc(F)c3)c2)cc1`, for which the IC50 is 0.63 µM.
The figure for `Cc1cc(NC(=O)C2CCCCC2)n(-c2nc3c(c(=O)[nH]2)CCC3)n1` is 0.13 µM.
For the compound `O=C(Cn1cnc2c(-c3ccccc3)csc2c1=O)N1CCCCC1`, the IC50 was 0.79 µM.
The same measure for `Cc1[nH]nc2c1C(c1ccc(OCc3ccccc3F)cc1)SCC(=O)N2` (stereo not drawn): 25 µM; for `COc1ccc2ncc(=O)n(CCN3CC[C@H](NCc4ncc(Cl)c5[nH]ncc45)[C@H](O)C3)c2n1`: 0.32 µM.
The same measure for `O=C(NC(c1ccc(Cl)cc1)c1cnccn1)C1CCN(C(=O)Nc2cccc(C(F)(F)F)c2)CC1` (stereo not drawn): 13 µM.

As a reminder, the IC50 is the concentration needed to halve the response being measured.
